Reference: US20150197814A1, “EGFR AND KRAS MUTATIONS” (Genentech, Inc., priority 2005, published 2015)

Legend:
[1] = test system: HN5 xenografts; conditions: HN5 xenografts in nude mice; cited from earlier work
[2] = test system: A431 xenografts; conditions: A431 xenografts in nude mice; cited from earlier work
[3] = with paclitaxel, cisplatin, gemcitabine, and doxorubicin; cited from earlier work
[4] = test system: H1975 tumor cell line (EGFR T790M in combination with L858R); test: sensitivity of H1975 tumor cell line to treatment
[5] = test system: cell cycle; conditions: cited from earlier work

For C#Cc1cccc(Nc2ncnc3cc(OCCOC)c(OCCOC)cc23)c1 [erlotinib], the “growth inhibition of xenografts” value [1] is listed as “marked growth inhibition”, the “growth inhibition of xenografts” value [2] is listed as “marked growth inhibition” and the “interaction with chemotherapy agents” value [3] is listed as “additive interaction”. The “response of tumor cell line to treatment” value [4] was “resistance” and the cell cycle effect [5] was “cell cycle arrest at G1”.
